Patent US11214594B2, “Antimicrobial peptide having synergistic antibacterial effect with antibiotics on multidrug resistant bacteria, and use thereof” (priority 2016, dated 2022)
Converted amounts (≈) assume the structure as drawn. Like-named read-outs stand apart in the source and are kept apart here. Where a SMILES comes first, the peptide text is derived from it. [ ]: non-standard residue; d: D form.

Columns and labels:
A. baumannii [1] = assay: MIC of antibiotic during combined treatment with antimicrobial peptide; assay type: cell-based, Acinetobacter baumannii; settings: for Antibiotic MIC, Erythromycin / Antibiotic MIC, Linezolid / Antibiotic MIC, Vancomycin: A. baumannii
Outline: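 Checkerboard-type MIC of peptide–antibiotic mixtures in MH medium: the antibiotic was serially diluted in MH medium and added to wells, then the reversed arrangement was also tested.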

P. aeruginosa = assay: microbe, parasite or virus in culture; assay type: cell-based, Pseudomonas aeruginosa
Outline: (§1)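 MIC read-out = lowest peptide level with no bacterial proliferation. Strains diluted in MH medium to 2×10^6 CFU; peptide twofold serial dilutions in MH added 1:1 in microtiter wells.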

MDRST 8007 = assay: Minimal inhibitory concentration (MIC), single agent; assay type: cell-based, Salmonella typhimurium; settings: agent alone
Outline: as §1

S. epidermidis = assay: microbe, parasite or virus in culture; assay type: cell-based, Staphylococcus epidermidis
Outline: as §1

MDRAB 12035 [2] = assay: microbe, parasite or virus in culture; assay type: cell-based, Acinetobacter baumannii
Outline: as §1

A. baumannii [3] = assay: microbe, parasite or virus in culture; assay type: cell-based, Acinetobacter baumannii
Outline: as §1

MDRAB 12035 [4] = assay: MIC of antibiotic during combined treatment with antimicrobial peptide; assay type: cell-based, Acinetobacter baumannii
Outline: (§2)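 Strains in MH medium at 2×10^6 CFU/ml were mixed with peptide diluted stepwise (2:1) from its MIC, then antibiotic dilutions in MH medium were added to give the antibiotic MIC. The reversed set-up, peptide titrated against fixed antibiotic, gave the peptide MIC.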

MDREC 1229 = assay type: cell-based, Escherichia coli
Outline: as §2

[5] = combined with peptide at 2 μg/ml
[6] = combined with peptide at 4 μg/ml
[7] = combined with peptide at 6 μg/ml
[8] = combined with peptide at 8 μg/ml
[9] = combined with peptide at 16 μg/ml
[10] = combined with peptide at 32 μg/ml
[11] = combined with peptide at 64 μg/ml
[12] = peptide treatment concentration 1 μg/ml
[13] = peptide treatment concentration 2 μg/ml
[14] = peptide treatment concentration 4 μg/ml
[15] = peptide treatment concentration 6 μg/ml
[16] = peptide treatment concentration 8 μg/ml
[17] = peptide treatment concentration 16 μg/ml
[18] = peptide treatment concentration 32 μg/ml
[19] = peptide treatment concentration 64 μg/ml

In the case of CC[C@H](C)[C@H](NC(=O)[C@H](CCCCN)NC(=O)[C@H](Cc1c[nH]c2ccccc12)NC(=O)[C@@H](N)CCCNC(=N)N)C(=O)N[C@@H](Cc1ccccc1)C(=O)N[C@@H](CCCCN)C(=O)N[C@@H](CCCCN)C(=O)N[C@H](C(=O)N[C@H](CC(C)C)C(=O)N[C@@H](CCCCN)C(=O)N[C@@H](CC(C)C)C(=O)N[C@@H](CC(C)C)C(=O)N[C@@H](Cc1c[nH]cn1)C(=O)N[C@@H](CCC(=O)O)C(=O)N[C@@H](C)C(=O)N[C@@H](CCCCN)C(=O)N[C@@H](CCCCN)C(=O)N[C@@H](Cc1c[nH]c2ccccc12)C(N)=O)[C@@H](C)CC [PapMA-24, RWK IFK KIl KLL HEA KKW-NH2] (H-RWKIFKKI[dL]KLLHEAKKW-NH2; N-terminus assumed), the “Synergistic effect of antibacterial activity with existing antibiotics compared with PapMA-1” value (A. baumannii [1]; A. baumannii and MDRAB 12035) is reported as “level similar to that of PapMA-1 peptide”, the “Antibiotic MIC, Erythromycin” value (A. baumannii [1]; [5]) is reported as 32 µg/mL and the “Antibiotic MIC, Linezolid” value (A. baumannii [1]; [5]) is reported as over 128 µg/mL. For the same compound, the “Antibiotic MIC, Vancomycin” value (A. baumannii [1]; [5]) was 128 µg/mL, the “Antibiotic MIC, Erythromycin” value (A. baumannii [1]; [6]) was 8 µg/mL and the “Antibiotic MIC, Linezolid” value (A. baumannii [1]; [6]) was 64 µg/mL. For the same compound, the “Antibiotic MIC, Vancomycin” value (A. baumannii [1]; [6]) was 64 µg/mL, the “Antibiotic MIC, Erythromycin” value (A. baumannii [1]; [7]) was 2 µg/mL and the “Antibiotic MIC, Linezolid” value (A. baumannii [1]; [7]) was 8 µg/mL. For the same compound, the “Antibiotic MIC, Vancomycin” value (A. baumannii [1]; [7]) was 16 µg/mL, the “Antibiotic MIC, Erythromycin” value (A. baumannii [1]; [8]) was 0.5 µg/mL and the “Antibiotic MIC, Linezolid” value (A. baumannii [1]; [8]) was 4 µg/mL. The “Antibiotic MIC, Vancomycin” value (A. baumannii [1]; [8]) was 8 µg/mL, the “Antibiotic MIC, Erythromycin” value (A. baumannii [1]; [9]) was 0 µg/mL and the “Antibiotic MIC, Linezolid” value (A. baumannii [1]; [9]) was 0 µg/mL. For the same compound, the “Antibiotic MIC, Vancomycin” value (A. baumannii [1]; [9]) was 0 µg/mL, the “Antibiotic MIC, Erythromycin” value (A. baumannii [1]; [10]) was 0 µg/mL and the “Antibiotic MIC, Linezolid” value (A. baumannii [1]; [10]) was 0 µg/mL. The “Antibiotic MIC, Vancomycin” value (A. baumannii [1]; [10]) was 0 µg/mL, the “Antibiotic MIC, Erythromycin” value (A. baumannii [1]; [11]) was 0 µg/mL and the “Antibiotic MIC, Linezolid” value (A. baumannii [1]; [11]) was 0 µg/mL. The “Antibiotic MIC, Vancomycin” value (A. baumannii [1]; [11]) was 0 µg/mL, the “Minimal inhibitory concentration MIC” value (P. aeruginosa) was 64 µg/mL (≈ 27.1 µM) and the “Minimal inhibitory concentration MIC” value (MDRST 8007) was 32 µg/mL (≈ 13.5 µM). For the same compound, the “Minimal inhibitory concentration MIC” value (S. epidermidis) was over 128 µg/mL, the “Minimal inhibitory concentration MIC” value (MDRAB 12035 [2]) was 32 µg/mL (≈ 13.5 µM) and the “Peptide MIC, peptide alone” value (MDRAB 12035 [2]) was 32 µg/mL. The “Minimal inhibitory concentration MIC” value (A. baumannii [3]) was 16 µg/mL (≈ 6.77 µM), the “Peptide MIC, peptide alone” value (A. baumannii [3]) was 16 µg/mL and the “Antibacterial activity relative to PapMA-1” value (A. baumannii [3]; A. baumannii and S. typhimurium) was “at least twice as high”. For the same compound, the “Erythromycin MIC during combined treatment with peptide” value (MDRAB 12035 [4]; [12]) was 32 µg/mL, the “Linezolid MIC during combined treatment with peptide” value (MDRAB 12035 [4]; [12]) was over 128 µg/mL and the “Vancomycin MIC during combined treatment with peptide” value (MDRAB 12035 [4]; [12]) was over 128 µg/mL. The “Erythromycin MIC during combined treatment with peptide” value (MDRAB 12035 [4]; [13]) was 32 µg/mL, the “Linezolid MIC during combined treatment with peptide” value (MDRAB 12035 [4]; [13]) was over 128 µg/mL and the “Vancomycin MIC during combined treatment with peptide” value (MDRAB 12035 [4]; [13]) was over 128 µg/mL. The “Erythromycin MIC during combined treatment with peptide” value (MDRAB 12035 [4]; [14]) was 16 µg/mL, the “Linezolid MIC during combined treatment with peptide” value (MDRAB 12035 [4]; [14]) was 64 µg/mL and the “Vancomycin MIC during combined treatment with peptide” value (MDRAB 12035 [4]; [14]) was 64 µg/mL. For the same compound, the “Erythromycin MIC during combined treatment with peptide” value (MDRAB 12035 [4]; [15]) was 2 µg/mL, the “Linezolid MIC during combined treatment with peptide” value (MDRAB 12035 [4]; [15]) was 16 µg/mL and the “Vancomycin MIC during combined treatment with peptide” value (MDRAB 12035 [4]; [15]) was 32 µg/mL. For the same compound, the “Erythromycin MIC during combined treatment with peptide” value (MDRAB 12035 [4]; [16]) was 1 µg/mL, the “Linezolid MIC during combined treatment with peptide” value (MDRAB 12035 [4]; [16]) was 8 µg/mL and the “Vancomycin MIC during combined treatment with peptide” value (MDRAB 12035 [4]; [16]) was 16 µg/mL. For the same compound, the “Erythromycin MIC during combined treatment with peptide” value (MDRAB 12035 [4]; [17]) was 0.25 µg/mL, the “Linezolid MIC during combined treatment with peptide” value (MDRAB 12035 [4]; [17]) was 4 µg/mL and the “Vancomycin MIC during combined treatment with peptide” value (MDRAB 12035 [4]; [17]) was 8 µg/mL. For the same compound, the “Erythromycin MIC during combined treatment with peptide” value (MDRAB 12035 [4]; [18]) was 0 µg/mL, the “Linezolid MIC during combined treatment with peptide” value (MDRAB 12035 [4]; [18]) was 0 µg/mL and the “Vancomycin MIC during combined treatment with peptide” value (MDRAB 12035 [4]; [18]) was 0 µg/mL. For the same compound, the “Erythromycin MIC during combined treatment with peptide” value (MDRAB 12035 [4]; [19]) was 0 µg/mL, the “Linezolid MIC during combined treatment with peptide” value (MDRAB 12035 [4]; [19]) was 0 µg/mL and the “Vancomycin MIC during combined treatment with peptide” value (MDRAB 12035 [4]; [19]) was 0 µg/mL. For the same compound, the “Peptide MIC during treatment with antibiotic” value (“Peptide MIC during treatment” for short) (MDREC 1229; erythromycin 32 μg/ml (Conc./MIC 1/8)) was 4 µg/mL, the “Peptide MIC during treatment” value (MDREC 1229; erythromycin 64 μg/ml (Conc./MIC 1/4)) was 2 µg/mL and the “Peptide MIC during treatment” value (MDREC 1229; erythromycin […] (Conc./MIC 1)) was 0 µg/mL. For the same compound, the “Peptide MIC during treatment” value (MDREC 1229; erythromycin […] (Conc./MIC 1/2)) was 1 µg/mL and the “Peptide MIC during treatment” value (MDREC 1229; linezolid 64 μg/ml (Conc./MIC 1/8)) was 4 µg/mL.
